One may read the IC50 as the concentration at which inhibition is half-maximal.

Assay [1] has as its target T1, KHK-C (Homo sapiens (Human), UniProt P50053). The assay can be described thus: Assay C: KHK assay at high fructose (8 mM) and ATP (2 mM), 1 nM KHK-C. The class given is biochemical.
Excerpt: (§1) A screening assay was developed for KHK involving a coupled enzyme system which used the product of the KHK reaction to drive an absorbance signal in kinetic mode. KHK takes fructose and ATP and converts it to F1P and ADP. ADP then serves as substrate to pyruvate kinase which converts PEP to pyruvate which is then reduced to lactate by lactate dehydrogenase with the concomitant oxidation of NADH to NAD+. The resulting depletion of NADH was monitored by measuring absorbance at 340 nm.
(§2) Recombinant human KHK-C and KHK-A were expressed in E. coli as a His-tagged fusion protein and purified using Ni-NTA chromatography.
A third KHK assay, referred to as Assay C, was performed at high fructose and ATP concentrations, conditions that would be more consistent with physiological concentrations of the natural substrates of the KHK enzyme. Assay C was conducted as described above for Assay B except using 8 mM fructose and 2 mM ATP, and compound concentration range of 10 pM to 1 μM or 50 pM to 5 μM using half-log dilution scheme.
Assay [2] has as its target T1, KHK-C. The assay can be described thus: Assay A: coupled-enzyme KHK absorbance assay, 10 nM KHK-C. The note with it: 10 nM KHK-C, 0.8 mM fructose, 0.2 mM ATP, avg of (#) runs.
Excerpt: as §1, §2
Compounds were prepared in DMSO as 4 mM stocks, diluted using an 11-point half-log scheme on a Biomek FX (Beckman Coulter), and incubated at rt for 30 minutes with the reaction mixture containing 50 mM HEPES, pH 7.4, 140 mM KCl, 3.5 mM MgCl2, 0.8 mM fructose, 2 mM TCEP, 0.8 mM PEP, 0.7 mM NADH, 0.01% Triton X-100, 30 U/mL pyruvate kinase-lactate dehydrogenase, and 10 nM purified KHK-C. The compound concentration in each well ranged from 1 nM to 100 μM. The reaction was initiated with the addition of 0.2 mM ATP. The absorbance was measured for 30 minutes on a SpectraMax reader (Molecular Devices) after ATP was added. The concentrations provided are based on the final mixture volume of 40 μL (referred to as the final concentration).
Controls: N8-(cyclopropylmethyl)-N4-(2-(methylthio)phenyl)-2-(piperazin-1-yl)pyrimido[5,4-d]pyrimidine-4,8-diamine at 2 μM final concentration was used as high percent effect (HPE) control, and 2.5% DMSO which was present in all reaction wells was used as zero percent effect (ZPE) control. Reaction rates were obtained for 300-1800 seconds time window in units of 1000*AU/min (absorbance unit per minute), and average values for ZPE and HPE controls from 16 wells each were calculated, AveZPE and AveHPE, respectively.
Percent inhibition (% inhibition) was calculated for each well using this equation:
For each compound tested, the IC50 provided is the average based on at least two separate assays conducted on separate days.
For assay [3], the target named is T1, KHK-C. The assay can be described thus: Assay B: KHK assay with 1 nM KHK-C, absorbance for 3 hours.
Excerpt: as §1
The reaction was initiated with addition of 0.2 mM ATP, and the absorbance was monitored for 3 hours at 340 nm. Reaction rates and IC50 values were calculated as described above.
Assay [4] concerns the target KHK-A (Homo sapiens (Human), UniProt P50053). Description: Assay D: KHK assay with 1 nM human KHK-A. The note with it: read-out: IC50 (nM) Assay D 1 nM KHK-A, 8 mM fructose, 0.2 mM ATP, avg of (#) runs.
Excerpt: as §1
A fourth assay, referred to as Assay D, was performed using human KHK-A to assess the potency of compounds in inhibiting activity of this enzyme. […] Reaction rates and IC50 values were calculated as described above.
The mark [5] stands for this setting: read-out: IC50 (nM) Assay A 10 nM KHK-C.
The mark [6] stands for this setting: read-out: IC50 (nM) Assay C 1 nM KHK-C, 8 mM fructose, 2 mM ATP, avg of (#) runs.
The mark [7] stands for this setting: read-out: IC50 (nM) Assay A (Table 4).
Setting [8] is: read-out: IC50 (nM) Assay B 1 nM KHK-C, 1 nM KHK-C, 0.2 mM ATP, 3 hours, avg of (#) runs.

T1 sequence (P50053 whole entry): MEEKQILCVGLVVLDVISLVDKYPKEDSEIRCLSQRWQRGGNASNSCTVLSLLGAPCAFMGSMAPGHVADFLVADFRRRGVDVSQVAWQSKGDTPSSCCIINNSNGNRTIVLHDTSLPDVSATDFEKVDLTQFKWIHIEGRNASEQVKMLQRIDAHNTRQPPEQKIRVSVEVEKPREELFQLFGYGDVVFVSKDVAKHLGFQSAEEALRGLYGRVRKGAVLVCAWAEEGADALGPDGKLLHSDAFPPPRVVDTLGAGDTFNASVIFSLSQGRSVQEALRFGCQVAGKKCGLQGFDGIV
Chain of KHK-A (P50053 other isoform, or with tags, fused parts or gaps): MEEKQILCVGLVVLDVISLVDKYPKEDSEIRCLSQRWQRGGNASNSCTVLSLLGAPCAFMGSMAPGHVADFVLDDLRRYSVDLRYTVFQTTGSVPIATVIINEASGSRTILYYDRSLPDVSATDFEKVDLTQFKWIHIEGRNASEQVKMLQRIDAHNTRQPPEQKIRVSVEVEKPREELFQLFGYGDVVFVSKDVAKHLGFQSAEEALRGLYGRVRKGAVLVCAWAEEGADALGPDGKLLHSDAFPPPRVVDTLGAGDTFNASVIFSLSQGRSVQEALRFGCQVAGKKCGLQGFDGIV

Regarding `C[C@H]1[C@H](O)CN1c1nc(N2C[C@@H]3[C@@H](CC(=O)O)[C@@H]3C2)c(Cl)c(C(F)(F)F)c1C#N` [Example 2, [(1R,5S,6R)-3-{3-chloro-5-cyano-6-[(2S,3R)-3-hydroxy-2-methylazetidin-1-yl]-4-(trifluoromethyl)pyridin-2-yl}-3-azabicyclo[3.1.0]hex-6-yl]acetic acid], the IC50 came to 3.6 nM in assay [1] (8 mM fructose, 2 mM ATP, avg of (#) runs); 6.8 nM in assay [2] (setting [5]); 1.5 nM in assay [3].

As for `Cc1c(N2C[C@@H]3[C@@H](CC(=O)O)[C@@H]3C2)nc(N2C[C@@H](O)[C@@H]2C)nc1C(F)(F)F` [Example 24, [(1R,5S,6R)-3-{2-[(2S,3R)-3-hydroxy-2-methylazetidin-1-yl]-5-methyl-6-(trifluoromethyl)pyrimidin-4-yl}-3-azabicyclo[3.1.0]hex-6-yl]acetic acid], the IC50 worked out at 11 nM in assay [1] (setting [6]); 12.1 nM in assay [4]; 9.7 nM in assay [2] (setting [5]); 9.7 nM in assay [2] (setting [7]); 3.3 nM in assay [3] (setting [8]).

With `C[C@H]1CCN1c1nc(C(F)F)c(Cl)c(N2C[C@@H]3[C@@H](CC(=O)O)[C@@H]3C2)n1` [Example 40, [(1R,5S,6R)-3-{5-chloro-6-(difluoromethyl)-2-[(2S)-2-methylazetidin-1-yl]pyrimidin-4-yl}-3-azabicyclo[3.1.0]hex-6-yl]acetic acid], the IC50 in assay [4] is 37.9 nM; in assay [2] (setting [5]), 11.1 nM; in assay [2] (setting [7]), 11.1 nM; in assay [3] (setting [8]), 3.7 nM.

`Cc1c(N2C[C@@H]3[C@@H](CC(=O)O)[C@@H]3C2)nc(N2CC[C@@H]2C)nc1C(F)(F)F` [Example 42, [(1R,5S,6R)-3-{5-methyl-2-[(2S)-2-methylazetidin-1-yl]-6-(trifluoromethyl)pyrimidin-4-yl}-3-azabicyclo[3.1.0]hex-6-yl]acetic acid]: the IC50 was 10.5 nM in assay [4], 8.8 nM in assay [2] (setting [5]), 8.8 nM in assay [2] (setting [7]) and 2.4 nM in assay [3] (setting [8]).

As to `Cc1c(C(F)F)nc(N2CC[C@@H]2C)nc1N1C[C@@H]2[C@@H](CC(=O)O)[C@@H]2C1` [Example 43, [(1R,5S,6R)-3-{6-(difluoromethyl)-5-methyl-2-[(2S)-2-methylazetidin-1-yl]pyrimidin-4-yl}-3-azabicyclo[3.1.0]hex-6-yl]acetic acid], the IC50 in assay [4] came out at 48.6 nM; in assay [2] (setting [5]), 17.8 nM; in assay [2] (setting [7]), 17.8 nM; in assay [3] (setting [8]) it was 8 nM.

`C[C@H]1[C@H](O)CN1c1nc(N2C[C@@H]3[C@@H](CC(=O)O)[C@@H]3C2)c(F)c(C(C)(F)F)c1C#N` [Example 50, [(1R,5S,6R)-3-{5-cyano-4-(1,1-difluoroethyl)-3-fluoro-6-[(2S,3R)-3-hydroxy-2-methylazetidin-1-yl]pyridin-2-yl}-3-azabicyclo[3.1.0]hex-6-yl]acetic acid]: the IC50 came out at 2.6 nM in assay [1] (setting [6]), 4.4 nM in assay [2] (setting [5]), 4.4 nM in assay [2] (setting [7]) and 1.5 nM in assay [3] (setting [8]).

The record behind these values is patent US10174007B2, “Substituted 3-azabicyclo[3.1.0]hexanes as ketohexokinase inhibitors” (Pfizer Inc., priority 2015, dated 2019).
